Results from ChEMBL document CHEMBL4673352, “Discovery of AZD4573, a Potent and Selective Inhibitor of CDK9 That Enables Short Duration of Target Engagement for the Treatment of Hematological Malignancies” (J Med Chem, 2020).
Values after ≈ are worked out from the molar mass of the structure shown.

Legend:
[1] = Solubility of compound in phosphate buffer at pH 7.4 using dried form of sample; assay type: physicochemical
[2] = Intrinsic clearance in human liver microsome; assay type: ADME, microsomes; conditions: for microsomal CLint: liver microsomes, read-out: CLH
[3] = Intrinsic clearance in rat cryopreserved hepatocytes assessed per million cells […]; assay type: ADME, cell-based, Hepatocyte; conditions: for hepatocyte CLint: cryopreserved hepatocytes, read-out: CLH
[4] = Lipophilicity, log D of compound in buffer/octanol at pH 7.4 by shake flask method; assay type: physicochemical
[5] = target: T1, Cyclin-dependent kinase 9 (Homo sapiens, UniProt P50750); test: Inhibition of CDK9 in human MV4-11 cells assessed as induction of caspase-3/7 activation measured after 6 hrs followed by Caspase-glo reagent based assay; assay type: cell-based
T1 sequence (P50750 whole entry, the tested form may be a part): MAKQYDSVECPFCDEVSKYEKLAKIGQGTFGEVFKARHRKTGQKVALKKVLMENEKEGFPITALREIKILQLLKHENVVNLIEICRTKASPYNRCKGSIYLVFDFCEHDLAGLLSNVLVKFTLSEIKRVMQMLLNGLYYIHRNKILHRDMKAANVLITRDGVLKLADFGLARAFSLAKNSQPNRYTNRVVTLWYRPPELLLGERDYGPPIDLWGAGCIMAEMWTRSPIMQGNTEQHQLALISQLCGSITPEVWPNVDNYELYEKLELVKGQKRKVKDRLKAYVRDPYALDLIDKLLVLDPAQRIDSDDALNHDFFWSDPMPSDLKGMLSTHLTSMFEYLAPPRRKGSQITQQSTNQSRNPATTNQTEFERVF

CDK9/cyclin T1 = CDK9/cyclin T1 (Homo sapiens, UniProt P50750); test: Inhibition of recombinant full length human N-terminal GST-fused CDK9 (1 to 372 residues)/His-tagged CyclinT1 (1 to 726 residues) expressed in baculovirus infected insect cells using FITC-X-GSRTPMY-NH2 as substrate preincubated for 10 mins followed by MgCl2 addition and measured after 90 mins in presence of 5 mM ATP by mobility shift assay
Sequence of CDK9/cyclin T1 (O60563 whole entry, the tested form may be a part): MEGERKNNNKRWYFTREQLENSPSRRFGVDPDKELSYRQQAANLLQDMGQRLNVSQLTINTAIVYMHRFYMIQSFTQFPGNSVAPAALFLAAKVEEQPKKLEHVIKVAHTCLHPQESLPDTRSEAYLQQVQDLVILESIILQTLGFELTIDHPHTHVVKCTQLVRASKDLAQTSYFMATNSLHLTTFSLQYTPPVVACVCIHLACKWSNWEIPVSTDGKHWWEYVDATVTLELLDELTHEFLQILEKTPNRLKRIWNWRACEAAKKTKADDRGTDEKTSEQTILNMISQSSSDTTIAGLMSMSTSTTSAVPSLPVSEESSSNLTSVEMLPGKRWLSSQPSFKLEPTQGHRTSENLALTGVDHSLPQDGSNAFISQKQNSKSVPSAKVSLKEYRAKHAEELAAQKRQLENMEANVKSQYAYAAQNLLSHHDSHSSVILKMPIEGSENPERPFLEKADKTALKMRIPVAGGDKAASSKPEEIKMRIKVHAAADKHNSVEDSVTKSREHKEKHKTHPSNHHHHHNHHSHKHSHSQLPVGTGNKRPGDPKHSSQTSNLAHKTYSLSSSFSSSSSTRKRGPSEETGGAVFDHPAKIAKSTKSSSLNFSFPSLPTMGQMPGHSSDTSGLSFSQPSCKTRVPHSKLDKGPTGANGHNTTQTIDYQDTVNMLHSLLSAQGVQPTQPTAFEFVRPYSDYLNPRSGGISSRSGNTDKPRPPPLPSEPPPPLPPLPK
Sequence of CDK9/cyclin T1 (P50750 whole entry, the tested form may be a part): as the sequence (P50750 whole entry, the tested form may be a part) above

[6] = target: T1, Cyclin-dependent kinase 9; test: Inhibition of CDK9 in human MCF7 cells assessed as reduction in RNA Polymerase 2 CTD phosphorylation at Ser2 residues measured after 6 hrs by immunofluorescence assay; assay type: cell-based
[7] = Intrinsic clearance in human cryopreserved hepatocytes assessed per million cells […]; assay type: ADME, cell-based, Hepatocyte; conditions: read-out: CLH
[8] = phosphate buffer, read-out: solubility

Compound: CC(=O)N[C@@H]1CCC[C@H](C(=O)Nc2cc(-c3cnn4c3OCCC4)c(Cl)cn2)C1
- solubility [1, 8]: 110 µM (≈ 46 µg/mL)
- microsomal CLint [2]: < 3 µL/min/mg
- hepatocyte CLint [3]: 34 µL/min/1e6 cells
- logD [4]: 2.6
- EC50 [5]: 260 nM
- IC50 (CDK9/cyclin T1): 110 nM
- IC50 [6]: 350 nM

Compound: CC1(C)Cc2c(-c3cc(NC(=O)[C@H]4C[C@@H](O)C4)ncc3Cl)cnn2C1
- solubility [1, 8]: 15 µM (≈ 5.41 µg/mL)
- microsomal CLint [2]: 25 µL/min/mg
- hepatocyte CLint [7]: 106 µL/min/1e6 cells
- hepatocyte CLint [3]: 157 µL/min/1e6 cells
- logD [4]: 3.2
- EC50 [5]: 38 nM
- IC50 [6]: 44 nM

Compound: CC(=O)N[C@@H]1CCC[C@H](C(=O)Nc2cc(-c3cnn4c3CCCCC4)c(Cl)cn2)C1
- solubility [1, 8]: 104 µM (≈ 44.7 µg/mL)
- microsomal CLint [2]: 39 µL/min/mg
- hepatocyte CLint [7]: 4.6 µL/min/1e6 cells
- hepatocyte CLint [3]: 51 µL/min/1e6 cells
- logD [4]: 3.6
- EC50 [5]: 180 nM
- IC50 [6]: 92 nM

Compound: CC(=O)N[C@@H]1CCC[C@H](C(=O)Nc2cc(-c3cnn4c3CC(C)(C)C4)ccn2)C1
- solubility [1, 8]: 970 µM (≈ 384 µg/mL)
- microsomal CLint [2]: < 3 µL/min/mg
- hepatocyte CLint [7]: < 1 µL/min/1e6 cells
- hepatocyte CLint [3]: 45 µL/min/1e6 cells
- logD [4]: 2.8
- EC50 [5]: 100 nM
- IC50 (CDK9/cyclin T1): 29 nM
- IC50 [6]: 150 nM

Compound: CC(=O)N[C@@H]1CCC[C@H](C(=O)Nc2cc(-c3cnn4c3CC(C)(C)C4)c(C#N)cn2)C1
- solubility [1, 8]: 380 µM (≈ 160 µg/mL)
- microsomal CLint [2]: 26 µL/min/mg
- hepatocyte CLint [7]: < 1 µL/min/1e6 cells
- hepatocyte CLint [3]: 47 µL/min/1e6 cells
- logD [4]: 3.2
- EC50 [5]: 140 nM
- IC50 [6]: 150 nM

Compound: CC(=O)N[C@@H]1CCC[C@H](C(=O)Nc2cc(-c3cnc4n3CCC4)c(Cl)cn2)C1
- solubility [1, 8]: 490 µM (≈ 197 µg/mL)
- microsomal CLint [2]: 9.7 µL/min/mg
- hepatocyte CLint [3]: 19 µL/min/1e6 cells
- logD [4]: 2.6
- EC50 [5]: 700 nM
- IC50 (CDK9/cyclin T1): 310 nM
- IC50 [6]: 760 nM

Compound: CC(=O)N[C@@H]1CCC[C@H](C(=O)Nc2cc(-c3cnn4c3CCCC4)c(F)cn2)C1
- solubility [1, 8]: > 1000 µM
- microsomal CLint [2]: < 3 µL/min/mg
- hepatocyte CLint [3]: 73 µL/min/1e6 cells
- logD [4]: 2.9
- EC50 [5]: 160 nM
- IC50 [6]: 100 nM

Compound: CC(=O)N[C@@H]1CCC[C@H](C(=O)Nc2cc(-c3cn[nH]c3CC(C)(C)CO)c(Cl)cn2)C1
- microsomal CLint [2]: 24 µL/min/mg
- hepatocyte CLint [7]: < 1 µL/min/1e6 cells
- IC50 [6]: > 2300 nM

Compound: CC(=O)N[C@@H]1CCC[C@H](C(=O)Nc2cc(-c3cnn4c3CC(C)C4)c(Cl)cn2)C1 (stereo in doubt; 27)
- solubility ([1]; buffer): 159 µM (≈ 66.1 µg/mL)
- CLH ([2]; microsomes): 18 µL/min/mg
- CLH ([3]; hepatocytes): 85 µL/min
- EC50 [5]: 77 nM
- IC50 (CDK9/cyclin T1): 27 nM
- IC50 [6]: 77 nM

Compound: CC(=O)N[C@@H]1CCC[C@H](C(=O)Nc2cc(-c3cnn4ccccc34)c(Cl)cn2)C1
- solubility [1, 8]: 45 µM (≈ 18.5 µg/mL)
- logD [4]: 3.6
- EC50 [5]: 150 nM
- IC50 (CDK9/cyclin T1): 61 nM
- IC50 [6]: 140 nM

Compound: CC(=O)N[C@@H]1CCC[C@H](C(=O)Nc2cc(-c3cnc4n3CCCC4)c(Cl)cn2)C1
- solubility [1, 8]: 600 µM (≈ 250 µg/mL)
- microsomal CLint [2]: 16 µL/min/mg
- hepatocyte CLint [3]: 12 µL/min/1e6 cells
- logD [4]: 2.7
- EC50 [5]: 1200 nM
- IC50 (CDK9/cyclin T1): 660 nM
- IC50 [6]: 1200 nM

Compound: CC(=O)N[C@@H]1CCC[C@H](C(=O)Nc2cc(-c3cnn4c3CC(C)(C)C4O)c(Cl)cn2)C1 (stereo not given in full)
- microsomal CLint [2]: 14 µL/min/mg
- hepatocyte CLint [7]: 48 µL/min/1e6 cells
- IC50 (CDK9/cyclin T1): 20 nM
- IC50 [6]: 170 nM

Compound: CC(=O)N[C@@H]1CCC[C@H](C(=O)Nc2cc(-c3cnc(C)n3C)c(Cl)cn2)C1
- solubility [1, 8]: > 1000 µM
- logD [4]: 2.2
- IC50 (CDK9/cyclin T1): 5300 nM
- IC50 [6]: > 3000 nM

Compound: CC(=O)N[C@@H]1CCC[C@H](C(=O)Nc2cc(-c3cnn4c3CC(C)(C)CC4)c(F)cn2)C1
- solubility [1, 8]: 160 µM (≈ 68.4 µg/mL)
- microsomal CLint [2]: 178 µL/min/mg
- hepatocyte CLint [7]: 23 µL/min/1e6 cells
- hepatocyte CLint [3]: 42 µL/min/1e6 cells
- logD [4]: 3.6
- EC50 [5]: 15 nM
- IC50 (CDK9/cyclin T1): < 3 nM
- IC50 [6]: 10 nM

Compound: CC(=O)N[C@@H]1CCC[C@H](C(=O)Nc2cc(-c3cnn4c3NCCC4)c(Cl)cn2)C1
- solubility [1, 8]: 860 µM (≈ 359 µg/mL)
- microsomal CLint [2]: 6.2 µL/min/mg
- hepatocyte CLint [3]: 10 µL/min/1e6 cells
- logD [4]: 2.4
- EC50 [5]: 670 nM
- IC50 [6]: 860 nM

Compound: CC(=O)N[C@@H]1CCC[C@H](C(=O)Nc2cc(-c3cnn4c3CC(C)C4)c(Cl)cn2)C1 (stereo in doubt; 28)
- solubility ([1]; buffer): 79 µM (≈ 32.9 µg/mL)
- microsomal CLint [2]: 13 µL/min/mg
- hepatocyte CLint [3]: 97 µL/min/1e6 cells
- logD [4]: 3.4
- EC50 [5]: 92 nM
- IC50 (CDK9/cyclin T1): 26 nM
- IC50 [6]: 36 nM

Compound: CC(=O)N[C@@H]1CCC[C@H](C(=O)Nc2cc(-c3cnc4ccccn34)c(Cl)cn2)C1
- solubility [1, 8]: 120 µM (≈ 49.4 µg/mL)
- logD [4]: 3
- IC50 (CDK9/cyclin T1): 750 nM
- IC50 [6]: 1600 nM

Compound: CC(=O)N[C@@H]1CCC[C@H](C(=O)Nc2cc(-c3cnn4c3CCC4)c(Cl)cn2)C1
- solubility [1, 8]: 160 µM (≈ 64.3 µg/mL)
- microsomal CLint [2]: < 3 µL/min/mg
- hepatocyte CLint [3]: 72 µL/min/1e6 cells
- logD [4]: 2.9
- EC50 [5]: 330 nM
- IC50 (CDK9/cyclin T1): 180 nM
- IC50 [6]: 530 nM

Compound: CC(=O)N[C@@H]1CCC[C@H](C(=O)Nc2cc(-c3cnn4c3CC(C)(C)CC4)ccn2)C1
- solubility [1, 8]: 640 µM (≈ 262 µg/mL)
- microsomal CLint [2]: 29 µL/min/mg
- hepatocyte CLint [7]: 4.3 µL/min/1e6 cells
- hepatocyte CLint [3]: 35 µL/min/1e6 cells
- logD [4]: 3.1
- EC50 [5]: 39 nM
- IC50 [6]: 48 nM

Compound: CC(=O)N[C@@H]1CCC[C@H](C(=O)Nc2cc(-c3cnn4c3CC(C)(C)C4)c(C)cn2)C1
- solubility [1, 8]: 600 µM (≈ 246 µg/mL)
- microsomal CLint [2]: 19 µL/min/mg
- hepatocyte CLint [3]: 53 µL/min/1e6 cells
- logD [4]: 3.1

Compound: CC(=O)N[C@@H]1CCC[C@H](C(=O)Nc2cc(-c3cnn4c3CN(C)CC4)c(Cl)cn2)C1
- solubility [1, 8]: 870 µM (≈ 375 µg/mL)
- microsomal CLint [2]: < 3 µL/min/mg
- hepatocyte CLint [3]: 7.7 µL/min/1e6 cells
- logD [4]: 2.1
- EC50 [5]: 910 nM
- IC50 (CDK9/cyclin T1): 220 nM
- IC50 [6]: 800 nM

Compound: CC(=O)N[C@@H]1CC[C@H](C(=O)Nc2cc(-c3cnn4c3CC(C)(C)C4)c(Cl)cn2)C1
- solubility [1, 8]: 35 µM (≈ 14.6 µg/mL)
- microsomal CLint [2]: 38 µL/min/mg
- hepatocyte CLint [7]: 5.8 µL/min/1e6 cells
- hepatocyte CLint [3]: 97 µL/min/1e6 cells
- logD [4]: 3.5
- EC50 [5]: 15 nM
- IC50 [6]: 40 nM

Compound: CC(=O)N[C@@H]1CCC[C@H](C(=O)Nc2cc(-c3cnn4c3COCC4)c(Cl)cn2)C1
- solubility [1, 8]: 220 µM (≈ 91.9 µg/mL)
- microsomal CLint [2]: < 3 µL/min/mg
- hepatocyte CLint [3]: 18 µL/min/1e6 cells
- logD [4]: 2.4
- EC50 [5]: 1900 nM
- IC50 (CDK9/cyclin T1): 1000 nM
- IC50 [6]: 2100 nM

Compound: CC(=O)N[C@@H]1CCC[C@H](C(=O)Nc2cc(-c3cnn4c3CCCC4)ccn2)C1
- solubility [1, 8]: 730 µM (≈ 278 µg/mL)
- microsomal CLint [2]: < 3 µL/min/mg
- hepatocyte CLint [3]: 33 µL/min/1e6 cells
- logD [4]: 2.4
- EC50 [5]: 440 nM
- IC50 (CDK9/cyclin T1): 230 nM
- IC50 [6]: 520 nM

Compound: CC(=O)N[C@@H]1CCC[C@H](C(=O)Nc2cc(-c3cnc4n3CC(C)(C)C4)c(Cl)cn2)C1
- solubility [1, 8]: 280 µM (≈ 120 µg/mL)
- microsomal CLint [2]: 63 µL/min/mg
- hepatocyte CLint [7]: 2.5 µL/min/1e6 cells
- hepatocyte CLint [3]: 28 µL/min/1e6 cells
- logD [4]: 3.6

Compound: CC(=O)N[C@@H]1CCC[C@H](C(=O)Nc2cc(-c3nnn4c3CCCC4)c(Cl)cn2)C1
- solubility [1, 8]: 530 µM (≈ 221 µg/mL)
- logD [4]: 2
- IC50 (CDK9/cyclin T1): 4400 nM
- IC50 [6]: > 2600 nM

Compound: CC(=O)N[C@@H]1CCC[C@H](C(=O)Nc2cc(-c3cnc(C)n3C(C)C)ccn2)C1
- solubility [1, 8]: 660 µM (≈ 253 µg/mL)
- microsomal CLint [2]: 3.6 µL/min/mg
- hepatocyte CLint [3]: 7.4 µL/min/1e6 cells
- logD [4]: 1.9
- EC50 [5]: 660 nM
- IC50 (CDK9/cyclin T1): 380 nM
- IC50 [6]: 920 nM
